Values quoted from earlier work, collected in patent US20220031669A1, “Compositions for Broad Spectrum Topical Antimicrobials” (priority 2020, published 2022).

Conditions: thiol group of acetylcysteine

Question: With CC(=O)N[C@@H](CS)C(=O)O [acetylcysteine] as the compound, how does the “pKa of SH” value read?
Answer: 9.4
